Experimental data taken from the supplement of paper PMC10307832.

Experiments:
Experiment in all cases: relative viability (nuclei count vs DMSO), 5 days (fraction); higher = more cells survive
Bleomycin + Decitabine = compound: CC1=C(N=C(N=C1N)[C@H](CC(=O)N)NC[C@@H](C(=O)N)N)C(=O)N[C@@H]([C@H](C2=CN=CN2)OC3C(C(C(C(O3)CO)O)O)OC4C(C(C(C(O4)CO)O)OC(=O)N)O)C(=O)N[C@H](C)[C@H]([C@H](C)C(=O)N[C@@H]([C@@H](C)O)C(=O)NCCC5=NC(=CS5)C6=NC(=CS6)C(=O)NCCC[S+](C)C)O [Bleomycin] + Nc1ncn([C@H]2C[C@H](O)[C@@H](CO)O2)c(=O)n1 [Decitabine] (partner 2 µM); settings: main component drawn
In short: (§1)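 Relative viability equals treated-well nuclei counts divided by vehicle-well nuclei counts. Counts came from 4× images of lung cancer cell lines grown in 1536-well plates for 5 days after pin-tool dosing on the day after seeding. Dosing used one drug alone or a fixed anchor-drug dose plus five library-drug doses (not always all listed) in √10 steps, and values are medians of duplicate plates.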

Bleomycin + Phenformin = compound: CC1=C(N=C(N=C1N)[C@H](CC(=O)N)NC[C@@H](C(=O)N)N)C(=O)N[C@@H]([C@H](C2=CN=CN2)OC3C(C(C(C(O3)CO)O)O)OC4C(C(C(C(O4)CO)O)OC(=O)N)O)C(=O)N[C@H](C)[C@H]([C@H](C)C(=O)N[C@@H]([C@@H](C)O)C(=O)NCCC5=NC(=CS5)C6=NC(=CS6)C(=O)NCCC[S+](C)C)O [Bleomycin] + N=C(N)NC(=N)NCCc1ccccc1 [Phenformin] (partner 250 µM); settings: main component drawn
In short: as §1

Etoposide + Linsitinib = compound: COc1cc([C@@H]2c3cc4c(cc3[C@@H](O[C@@H]3O[C@@H]5CO[C@@H](C)O[C@H]5[C@H](O)[C@H]3O)[C@H]3COC(=O)[C@H]23)OCO4)cc(OC)c1O [Etoposide] + C[C@]1(O)C[C@@H](c2nc(-c3ccc4ccc(-c5ccccc5)nc4c3)c3c(N)nccn32)C1 [Linsitinib] (partner 1 µM)
In short: as §1

Bleomycin + Pemetrexed = compound: CC1=C(N=C(N=C1N)[C@H](CC(=O)N)NC[C@@H](C(=O)N)N)C(=O)N[C@@H]([C@H](C2=CN=CN2)OC3C(C(C(C(O3)CO)O)O)OC4C(C(C(C(O4)CO)O)OC(=O)N)O)C(=O)N[C@H](C)[C@H]([C@H](C)C(=O)N[C@@H]([C@@H](C)O)C(=O)NCCC5=NC(=CS5)C6=NC(=CS6)C(=O)NCCC[S+](C)C)O [Bleomycin] + Nc1nc2[nH]cc(CCc3ccc(C(=O)N[C@@H](CCC(=O)O)C(=O)O)cc3)c2c(=O)[nH]1 [Pemetrexed] (partner 0.2 µM); settings: main component drawn
In short: as §1

With UMC-11 the relative viability (Bleomycin + Decitabine; first compound 0.01 µM) was 0.493, the relative viability (Bleomycin + Decitabine; first compound 0.03162 µM) was 0.509 and the relative viability (Bleomycin + Decitabine; first compound 0.1 µM) was 0.473. It also gave a relative viability (Bleomycin + Decitabine; first compound 0.3162 µM) of 0.528, a relative viability (Bleomycin + Decitabine; first compound 1 µM) of 0.404 and a relative viability (Bleomycin + Phenformin; first compound 0.01 µM) of 0.311. For the same cell line, the relative viability (Bleomycin + Phenformin; first compound 0.03162 µM) was 0.335, the relative viability (Bleomycin + Phenformin; first compound 0.1 µM) was 0.29 and the relative viability (Bleomycin + Phenformin; first compound 0.3162 µM) was 0.283. It also gave a relative viability (Bleomycin + Phenformin; first compound 1 µM) of 0.233, a relative viability (Etoposide + Linsitinib; first compound 0.01 µM) of 0.962 and a relative viability (Etoposide + Linsitinib; first compound 0.03162 µM) of 1.05. For the same cell line, the relative viability (Etoposide + Linsitinib; first compound 0.3162 µM) was 0.493, the relative viability (Etoposide + Linsitinib; first compound 1 µM) was 0.302 and the relative viability (Bleomycin + Pemetrexed; first compound 0.01 µM) was 0.74. It also gave a relative viability (Bleomycin + Pemetrexed; first compound 0.03162 µM) of 0.756, a relative viability (Bleomycin + Pemetrexed; first compound 0.1 µM) of 0.74 and a relative viability (Bleomycin + Pemetrexed; first compound 0.3162 µM) of 0.598. The relative viability (Bleomycin + Pemetrexed; first compound 1 µM) was 0.414.
